The nature of assay [1]: Minimum inhibitory concentration (growth at drug concentrations) and effect of para-aminobenzoic acid (PABA), Table II. It counts as cell-based.
A further assay relates to Pseudomonas. Put plainly: Minimum inhibitory concentrations vs Pseudomonas, Table V. It counts as cell-based.

Each structure is given as a SMILES string. ≈ marks a conversion by molar mass, not a printed value. Read-outs that look alike come from different tables or passages of the source.

With `CC(=O)[O-].CC(=O)[O-].[Zn+2]` [Zinc Acetate, zinc acetate], the “Growth (minimum inhibitory concentration series)” value in assay [1] (0.05 μ mole/ml drug), in assay [1] (0.1 μ mole/ml drug), in assay [1] (0.5 μ mole/ml drug) and in assay [1] (1.0 μ mole/ml drug) was “+” in each case.
In the case of `NCc1ccc(S(N)(=O)=O)cc1` [Sulfamylon], the “PAB to Block” value in the assay with Pseudomonas is “neg”. Also, the MIC in the assay with Pseudomonas (Pseudomonas, read-out: Minimum Inhibitory Concentration vs Pseudomonas) was 500 µM (≈ 93.1 µg/mL).
For `Nc1ccc(S(=O)(=O)Nc2ncccn2)cc1` [Sodium Sulfadiazine, sodium sulfadiazine], the “Growth (minimum inhibitory concentration series)” value is “+” in assay [1] (0.1 μ mole/ml drug); “+” in assay [1] (0.4 μ mole/ml drug); “+” in assay [1] (0.5 μ mole/ml drug); “+” in assay [1] (0.6 μ mole/ml drug); “-” in assay [1] (0.8 μ mole/ml drug); “-” in assay [1] (1.0 μ mole/ml drug). The “Growth (minimum inhibitory concentration series)” value in assay [1] (2.0 μ mole/ml drug) is on record as “-”. Also, the “Growth, drug + PABA” value in assay [1] (0.5 μ mole/ml drug + PABA 0.05), in assay [1] (1.0 μ mole/ml drug + PABA 0.1), in assay [1] (2.0 μ mole/ml drug + PABA 0.01), in assay [1] (2.0 μ mole/ml drug + PABA 0.1) and in assay [1] (2.0 μ mole/ml drug + PABA 0.2) was “+” throughout. The “Minimum Inhibitory Concentration vs Pseudomonas” value with Pseudomonas (listed as Na Sulfadiazine) came to 80 μM/L. For the same compound, the “PAB to Block” value with Pseudomonas (listed as Na Sulfadiazine) was 1/200.

For the origin of these results see patent US4049802A (Research Corporation, priority 1975, dated 1977).
